Measurements: patent US11247965B2 (VenatoRx Pharmaceuticals, Inc., priority 2017, dated 2022)

Tests used:
[1] = system: HBV replication in HepAD38 cells; experiment: Anti-HBV activity in HepAD38 cells, extracellular HBV DNA by QPCR; type: cell-based, HBV (genotype D, serotype ayw); conditions: Hepatitis B virus, HePAD38, 168 h, read-out: Anti-HBV EC50, HepAD38 cells, extracellular HBV DNA by QPCR, 7 days of incubation
In short: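 HepAD38 cells (HepG2 with tet-repressible HBV genotype D genome) seeded overnight, tetracycline removed, then treated 7 days with compounds (half-log dilutions, 30 μM–10 nM; 1:200 from DMSO). Supernatant HBV DNA quantified by QPCR against standard curve; % inhibition vs vehicle, EC50 by 4-parameter fit.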

[2] = In vitro cytotoxicity, MTT cell viability assay in HepG2 cells; type: cell-based; conditions: human, Cytotoxicity CC50
In short: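 Read-out: MTT formazan absorbance at 492 nm, expressed as % of vehicle signal; CC50 by 4-parameter non-linear regression. Parental HepG2, 20,000 cells/well, treated 7 days with compound from 30 μM down to 1.0 nM.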

Row | Structure (SMILES) | EC50 [1] [µM] | CC50 at 7 days [2] [µM]
1 | Cc1cc(NC(=O)c2ccc(F)c(C(F)(F)C(=O)N3CCC(O)(C(N)=O)CC3)c2)ccc1F [Example 212, 1-(2,2-difluoro-2-(2-fluoro-5-((4-fluoro-3-methylphenyl)carbamoyl)phenyl)acetyl)-4-hydroxypiperidine-4-carboxamide] | < 5 | 5 to 30
2 | N#Cc1cc(NC(=O)c2ccc(Cl)c(C(F)(F)C(=O)N3CCC(O)CC3)c2)ccc1F [Example 33, 4-chloro-N-(3-cyano-4-fluorophenyl)-3-(1,1-difluoro-2-(4-hydroxypiperidin-1-yl)-2-oxoethyl)benzamide] | < 5 | > 30
3 | Cc1cc(NC(=O)c2ccn(C)c2C(F)(F)C(=O)N[C@@H]2CCCC[C@H]2O)ccc1F [Example 128, 2-(1,1-difluoro-2-(((1R,2R)-2-hydroxycyclohexyl)amino)-2-oxoethyl)-N-(4-fluoro-3-methylphenyl)-1-methyl-1H-pyrrole-3-carboxamide] | 5 to 30 | > 30
4 | Cc1cc(NC(=O)c2ccc(F)c(C(F)(F)C(=O)N3CCC(N)C(C)(C)C3)n2)ccc1F (centres unmarked) [Example 304, 6-(2-(4-amino-3,3-dimethylpiperidin-1-yl)-1,1-difluoro-2-oxoethyl)-5-fluoro-N-(4-fluoro-3-methylphenyl)picolinamide] | < 5 | 5 to 30
5 | Cc1cc(NC(=O)c2ccc(F)c(C(F)(F)C(=O)N3CCC(C)(O)CC3)c2)ccc1F [Example 70, 3-(1,1-difluoro-2-(4-hydroxy-4-methylpiperidin-1-yl)-2-oxoethyl)-4-fluoro-N-(4-fluoro-3-methylphenyl)benzamide] | < 5 | 5 to 30
6 | Cc1cc(NC(=O)c2nn(C)cc2C(F)(F)C(=O)NC(C)(C)C)ccc1F [Example 166, 4-(2-(tert-butylamino)-1,1-difluoro-2-oxoethyl)-N-(4-fluoro-3-methylphenyl)-1-methyl-1H-pyrazole-3-carboxamide] | 5 to 30 | > 30
7 | CC(C)(CO)NC(=O)C(F)(F)c1cc(C(=O)Nc2ccc(F)c(F)c2)ccc1F [Example 24, 3-(1,1-difluoro-2-((1-hydroxy-2-methylpropan-2-yl)amino)-2-oxoethyl)-N-(3,4-difluorophenyl)-4-fluorobenzamide] | 5 to 30 | 5 to 30
8 | O=C(Nc1ccc(F)c(Br)c1)c1ccc(F)c(C(F)(F)C(=O)N2[C@@H]3CC[C@H]2C[C@H](O)C3)c1 [Example 189, N-(3-bromo-4-fluorophenyl)-3-(1,1-difluoro-2-((1R,3s,5S)-3-hydroxy-8-azabicyclo[3.2.1]octan-8-yl)-2-oxoethyl)-4-fluorobenzamide] | < 5 | 5 to 30
9 | O=C(Nc1ccc(F)c(F)c1)c1ccc(F)c(C(F)(F)C(=O)NC[C@H](O)CO)c1 [Example 54, (S)—N-(3,4-difluorophenyl)-3-(2-((2,3-dihydroxypropyl)amino)-1,1-difluoro-2-oxoethyl)-4-fluorobenzamide] | < 5 | > 30
10 | Cc1cc(NC(=O)c2ccc(F)c(C(F)(F)C(=O)N3CCn4nncc4C3)c2)ccc1F [Example 297, 3-(2-(6,7-dihydro-[1,2,3]triazolo[1,5-a]pyrazin-5(4H)-yl)-1,1-difluoro-2-oxoethyl)-4-fluoro-N-(4-fluoro-3-methylphenyl)benzamide] | < 5 | 5 to 30
11 | Cc1cc(NC(=O)c2ccc(F)c(C(F)(F)C(=O)N3[C@@H]4COC[C@H]3CC(O)C4)c2)ccc1F (stereo partly drawn) [Example 203, 3-(1,1-difluoro-2-((1R,5S)-7-hydroxy-3-oxa-9-azabicyclo[3.3.1]nonan-9-yl)-2-oxoethyl)-4-fluoro-N-(4-fluoro-3-methylphenyl)benzamide] | < 5 | 5 to 30
12 | Cc1cc(NC(=O)c2ccc(F)c(C(F)(F)C(=O)N3C[C@H]4CC[C@@H](C3)C4=O)c2)ccc1F [Example 280, 3-(1,1-difluoro-2-oxo-2-((1R,5S)-8-oxo-3-azabicyclo[3.2.1]octan-3-yl)ethyl)-4-fluoro-N-(4-fluoro-3-methylphenyl)benzamide] | < 5 | 5 to 30
13 | Cc1cc(NC(=O)c2cc(C(C)(O)C(=O)NC(C)(C)C)cn2C)ccc1F (centres unmarked) [Example 123, 4-(1-(tert-butylamino)-2-hydroxy-1-oxopropan-2-yl)-N-(4-fluoro-3-methylphenyl)-1-methyl-1H-pyrrole-2-carboxamide] | 5 to 30 | 5 to 30
14 | Cc1cc(NC(=O)c2ccc(F)c(C(F)(F)C(=O)N3[C@@H]4CC[C@H]3C[C@@H](NC(=O)OC(C)(C)C)C4)c2)ccc1F [Example 225, tert-butyl ((1R,3r,5S)-8-(2,2-difluoro-2-(2-fluoro-5-((4-fluoro-3-methylphenyl)carbamoyl)phenyl)acetyl)-8-azabicyclo[3.2.1]octan-3-yl)carbamate] | < 5 | 5 to 30
15 | Cc1cc(NC(=O)c2ccc(F)c(C(F)(F)C(=O)NC34CCC(N)(CC3)C4)c2)ccc1F [Example 253, 3-(2-((4-aminobicyclo[2.2.1]heptan-1-yl)amino)-1,1-difluoro-2-oxoethyl)-4-fluoro-N-(4-fluoro-3-methylphenyl)benzamide] | < 5 | > 30
16 | N#Cc1cc(NC(=O)c2ccc(F)c(C(F)(F)C(=O)N3CCC(O)CC3)c2)ccc1F [Example 88, N-(3-cyano-4-fluorophenyl)-3-(1,1-difluoro-2-(4-hydroxypiperidin-1-yl)-2-oxoethyl)-4-fluorobenzamide] | < 5 | > 30
17 | Cc1cc(NC(=O)c2ccnc(C(F)(F)C(=O)N3C4CC[C@@H]3C[C@@H](C(=O)O)C4)c2)ccc1F [Example 244, (1R,3s,5S)-8-(2,2-difluoro-2-(4-((4-fluoro-3-methylphenyl)carbamoyl)pyridin-2-yl)acetyl)-8-azabicyclo[3.2.1]octane-3-carboxylic acid] | 5 to 30 | 5 to 30
18 | Cc1cc(NC(=O)c2ccc(F)c(C(F)(F)C(=O)N3[C@@H]4CC[C@H]3COC4)c2)ccc1F [Example 213, 3-(2-((1R,5S)-3-oxa-8-azabicyclo[3.2.1]octan-8-yl)-1,1-difluoro-2-oxoethyl)-4-fluoro-N-(4-fluoro-3-methylphenyl)benzamide] | < 5 | > 30
19 | Cc1cc(NC(=O)c2ccc(F)c(C(F)(F)C(=O)N3CCC(O)C(F)(F)C3)c2)cc(F)n1 (centres unmarked) [Example 251, 3-(2-(3,3-difluoro-4-hydroxypiperidin-1-yl)-1,1-difluoro-2-oxoethyl)-4-fluoro-N-(2-fluoro-6-methylpyridin-4-yl)benzamide] | 5 to 30 | 5 to 30
20 | Cc1cc(NC(=O)c2ccc([C@@H](O)CO)c(C(F)(F)C(=O)N3CCC(O)CC3)c2)ccc1F [Example 116, (R)-3-(1,1-difluoro-2-(4-hydroxypiperidin-1-yl)-2-oxoethyl)-4-(1,2-dihydroxyethyl)-N-(4-fluoro-3-methylphenyl)benzamide] | > 30 | > 30
21 | Cn1cc(NC(=O)c2ccc(F)c(C(F)(F)C(=O)N3[C@@H]4CC[C@H]3C[C@@H](O)C4)c2)cn1 [Example 180, 3-(1,1-difluoro-2-((1R,3r,5S)-3-hydroxy-8-azabicyclo[3.2.1]octan-8-yl)-2-oxoethyl)-4-fluoro-N-(1-methyl-1H-pyrazol-4-yl)benzamide] | 5 to 30 | > 30
22 | O=C(Nc1ccc(F)c(F)c1)c1ccc(F)c(C(F)(F)C(=O)NCc2ccc(O)cc2)c1 [Example 65, 3-(1,1-difluoro-2-((4-hydroxybenzyl)amino)-2-oxoethyl)-N-(3,4-difluorophenyl)-4-fluorobenzamide] | 5 to 30 | 5 to 30
23 | O=C(Nc1ccc(F)c(F)c1)c1ccc(F)c(C(F)(F)C(=O)NC2CCCCC2)c1 [Example 8, 3-(2-(cyclohexylamino)-1,1-difluoro-2-oxoethyl)-N-(3,4-difluorophenyl)-4-fluorobenzamide] | 5 to 30 | 5 to 30
24 | Cc1cc(NC(=O)c2ccc(Cl)c(C(F)(F)C(=O)N3CCC(O)CC3)c2)ccc1F [Example 17, 4-chloro-3-(1,1-difluoro-2-(4-hydroxypiperidin-1-yl)-2-oxoethyl)-N-(4-fluoro-3-methylphenyl)benzamide] | < 5 | 5 to 30
25 | Cc1cc(NC(=O)c2ccnc(C(F)(F)C(=O)N3[C@@H]4CC[C@H]3C[C@H](C(=O)O)C4)c2)ccc1F [Example 282, (1R,3s,5S)-8-(2,2-difluoro-2-(4-((4-fluoro-3-methylphenyl)carbamoyl)pyridin-2-yl)acetyl)-8-azabicyclo[3.2.1]octane-3-carboxylic acid] | 5 to 30 | > 30
26 | N#Cc1cc(NC(=O)c2ccc(F)c(C(F)(F)C(=O)N3[C@@H]4CC[C@H]3C[C@H](O)C4)c2)ccc1F [Example 193, N-(3-cyano-4-fluorophenyl)-3-(1,1-difluoro-2-((1R,3s,5S)-3-hydroxy-8-azabicyclo[3.2.1]octan-8-yl)-2-oxoethyl)-4-fluorobenzamide] | < 5 | 5 to 30
27 | Cc1cc(NC(=O)c2cc(C(O)(C(=O)NC(C)(C)C)C(C)C)cn2C)ccc1F (centres unmarked) [Example 124, 4-(1-(tert-butylamino)-2-hydroxy-3-methyl-1-oxobutan-2-yl)-N-(4-fluoro-3-methylphenyl)-1-methyl-1H-pyrrole-2-carboxamide] | 5 to 30 | > 30
28 | Cc1cc(NC(=O)c2cc(F)cc(C(F)(F)C(=O)N3[C@@H]4CC[C@H]3C[C@H](O)C4)c2)ccc1F [Example 219, 3-(1,1-difluoro-2-((1R,3s,5S)-3-hydroxy-8-azabicyclo[3.2.1]octan-8-yl)-2-oxoethyl)-5-fluoro-N-(4-fluoro-3-methylphenyl)benzamide] | 5 to 30 | 5 to 30
